Test results: patent US20250064890A1, “PROTEIN COMPOSITIONS FOR THE TREATMENT OF INFLAMMATORY DISEASES” (Unichem Laboratories Limited, priority 2021, published 2025)

Legend:
[1] = system: oral (buccal) mucosa cells (TR146); experiment: Cytoprotective effect against 5-FU induced damage (MTT); type: cell-based, human
Description: The cell viability was assessed by (MTT) assay and compared with positive control (Cells treated with Amifostine, EGCG and EGF and negative assay (untreated cells), wherein the control was the cells that underwent chemotherapy/radiotherapy.
The protective effect of the recombinant lectin on survival of TR146 cells against 5-FU induced damage was determined using following calculations:
The viability of cells was determined as: % Cell viability=(100−% Cytotoxicity); • where, the percentage cytotoxicity corresponding to each treatment was calculated as: % Cytotoxicity=[(R−X)/R]*100, wherein X=Absorbance of cells treated with 5-FU or radiation damage/TI+5-FU, R=Absorbance of Control cells (Untreated) and Percentage protection was calculated as:
{(Absorbance of TI+5-FU or radiation)−(Absorbance of 5-FU or radiation alone)/(Absorbance of Untreated)−(Absorbance of 5-FU alone)}*100

[2] = system: oral (buccal) mucosa cells (TR146); details: human, 24 h
Description: Non-cytotoxic concentration of recombinant lectin having the amino acid sequence of SEQ ID NO: 2 was determined by treating oral (buccal) mucosa cells (TR146) with varying concentration of SEQ ID NO: 2 for 24 hrs and determining the cell viability using MTT assay.

SMILES: NCCCNCCSP(=O)(O)O [Amifostine, reference compound]
- % Protection ([1]; 1 μg/ml + 5-FU (5 mM)): 4.1%
- % Protection ([1]; 5 μg/ml + 5-FU (5 mM)): 28.8%
- % Protection ([1]; 10 μg/ml + 5-FU (5 mM)): 55.2%
- % Protection ([1]; 25 μg/ml + 5-FU (5 mM)): 37.5%
- non-cytotoxic concentration range [2]: 1 to 25 µg/mL
